Experimental data as given in patent publication US20230391760A1, “HETEROCYCLIC GLP-1 AGONISTS” (Gasherbrum Bio, Inc., priority 2020, published 2023).

The compounds below were run against GLP-1 Receptor (Homo sapiens, UniProt P43220) (assay: GLP-1R agonist cAMP stimulation assay (HEK293/GLP1R/CRE-LUC cells, cAMP dynamic 2 Kit)). Conditions: HEK293/CRE-Luc cell line stably expressing the GLP-1 Receptor, 30 min at 37° C.
Type: cell-based
How it was run: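 cAMP measured by HTRF competition (d2-labelled cAMP with cryptate antibody, 1 h, room temperature, protected from light). Before that, GLP1R/CRE-Luc HEK293 cells (1000/well) were exposed for 30 min at 37 °C to half-log compound dilutions in DPBS containing IBMX 0.5 mM and BSA 0.1%.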

Sequence of GLP-1 Receptor (P43220 24-463, species assumed): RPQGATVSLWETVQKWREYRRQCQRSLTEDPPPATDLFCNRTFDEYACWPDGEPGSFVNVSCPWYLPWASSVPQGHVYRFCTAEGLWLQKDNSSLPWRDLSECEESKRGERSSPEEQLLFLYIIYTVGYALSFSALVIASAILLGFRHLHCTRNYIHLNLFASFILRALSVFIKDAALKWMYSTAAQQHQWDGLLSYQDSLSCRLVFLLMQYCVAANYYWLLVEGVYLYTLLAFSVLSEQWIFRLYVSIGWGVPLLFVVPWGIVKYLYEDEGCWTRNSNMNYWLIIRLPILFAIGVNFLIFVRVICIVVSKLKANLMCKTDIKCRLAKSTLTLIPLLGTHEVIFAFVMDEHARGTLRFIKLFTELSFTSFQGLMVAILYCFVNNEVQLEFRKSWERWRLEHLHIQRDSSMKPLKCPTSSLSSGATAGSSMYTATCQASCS

Row | Structure (SMILES) | EC50 [nM]
1 | CO[C@H](C)Cn1c(CN2CCC(c3cccc4c3O[C@@](C)(c3ccc(Cl)cn3)O4)CC2)nc2cc(-c3noc(=O)[nH]3)ncc21 [Compound 466a, 3-[2-({4-[(2S)-2-(5-chloropyridin-2-yl)-2-methyl-2H-1,3-benzodioxol-4-yl]piperidin-1-yl}methyl)-3-[(2R)-2-methoxypropyl]-3H-imidazo[4,5-c]pyridin-6-yl]-4,5-dihydro-1,2,4-oxadiazol-5-one] | 0.19
2 | C[C@H]1CN(c2nc(OCc3ccc(Cl)cc3F)ccc2F)CCN1Cc1nc2cc(-c3nnc(C(F)(F)F)[nH]3)nnc2n1C[C@@H]1CCO1 [Compound 514a, (2S)-4-{6-[(4-chloro-2-fluorophenyl)methoxy]-3-fluoropyridin-2-yl}-2-methyl-1-[(7-{[(2S)-oxetan-2-yl]methyl}-3-[5-(trifluoromethyl)-4H-1,2,4-triazol-3-yl]-7H-imidazo[4,5-c]pyridazin-6-yl)methyl]piperazine] | 0.071
3 | CC1(c2ccc(Cl)cc2F)Oc2cccc(C3CCN(Cc4nc5cc(-c6nnc(C(F)F)[nH]6)ccc5n4C[C@@H]4CCO4)CC3)c2O1 (stereo partly drawn) [Compound 227a, 2-({4-[2-(4-chloro-2-fluorophenyl)-2-methyl-2H-1,3-benzodioxol-4-yl]piperidin-1-yl}methyl)-5-[5-(difluoromethyl)-4H-1,2,4-triazol-3-yl]-1-{[(2S)-oxetan-2-yl]methyl}-1H-1,3-benzodiazole] | 0.094
4 | Fc1cc(Cl)ccc1COc1cccc(C2=CCN(Cc3nc4cc(-c5nnc(C(F)(F)F)[nH]5)ncc4n3C[C@@H]3CCO3)CC2)c1 [Compound 307a, 4-{3-[(4-chloro-2-fluorophenyl)methoxy]phenyl}-1-[(3-{[(2S)-oxetan-2-yl]methyl}-6-[5-(trifluoromethyl)-4H-1,2,4-triazol-3-yl]-3H-imidazo[4,5-c]pyridin-2-yl)methyl]-1,2,3,6-tetrahydropyridine] | 0.26
5 | Cc1nnc(-c2cc3nc(CN4CCC(c5cccc6c5O[C@@](C)(c5ccc(Cl)cc5F)O6)CC4)n(C[C@@H]4CCO4)c3nn2)[nH]1 [Compound 280a, 4-[(2S)-2-(4-chloro-2-fluorophenyl)-2-methyl-2H-1,3-benzodioxol-4-yl]-1-{[3-(5-methyl-4H-1,2,4-triazol-3-yl)-7-{[(2S)-oxetan-2-yl]methyl}-7H-imidazo[4,5-c]pyridazin-6-yl]methyl}piperidine] | 0.11
6 | N#Cc1ccc(COc2cc(N3CCN(Cc4nc5cc(-c6nnc(C(F)(F)F)[nH]6)ncc5n4C[C@@H]4CCO4)CC3)ccc2F)c(F)c1 [Compound 469a, 3-fluoro-4-[(2-fluoro-5-{4-[(3-{[(2S)-oxetan-2-yl]methyl}-6-[5-(trifluoromethyl)-4H-1,2,4-triazol-3-yl]-3H-imidazo[4,5-c]pyridin-2-yl)methyl]piperazin-1-yl}phenoxy)methyl]benzonitrile] | 0.087
7 | Fc1cc(Cl)ccc1COc1cccc(C2CCN(Cc3nc4cc(-c5nnc(C(F)(F)F)[nH]5)ncc4n3C[C@@H]3CCO3)CC2F)n1 (stereo partly drawn) [Compound 499a, 2-[(4-chloro-2-fluorophenyl)methoxy]-6-[(3,4-trans)-3-fluoro-1-[(3-{[(2S)-oxetan-2-yl]methyl}-6-[5-(trifluoromethyl)-4H-1,2,4-triazol-3-yl]-3H-imidazo[4,5-c]pyridin-2-yl)methyl]piperidin-4-yl]pyridine] | 0.04
8 | C[C@H]1CN(c2ncc(F)c(OCc3ccc(Cl)cc3F)n2)CCN1Cc1nc2cc(-c3nnc(C(F)(F)F)[nH]3)cnc2n1C[C@@H]1CCO1 [Compound 527a, 4-[(4-chloro-2-fluorophenyl)methoxy]-5-fluoro-2-[(3S)-3-methyl-4-[(3-{[(2S)-oxetan-2-yl]methyl}-6-[5-(trifluoromethyl)-4H-1,2,4-triazol-3-yl]-3H-imidazo[4,5-b]pyridin-2-yl)methyl]piperazin-1-yl]pyrimidine] | 0.033
9 | O=C(O)Cc1ccc2c(c1)nc(CN1CCC(c3cccc(OCc4ccc(Cl)cc4F)n3)CC1)n2C[C@@H]1CCO1 [Compound 110a, (S)-2-(2-((4-(6-((4-chloro-2-fluorobenzyl)oxy)pyridin-2-yl)piperidin-1-yl)methyl)-1-(oxetan-2-ylmethyl)-1H-benzo[d]imidazol-5-yl)acetic acid] | 15.9
10 | C[C@]1(c2ccc(Cl)cc2F)Oc2cccc(C3CCN(Cc4nc5cc(-c6nnc(C#N)[nH]6)ncc5n4C[C@@H]4CCO4)CC3)c2O1 [Compound 444a, 5-[2-({4-[(2S)-2-(4-chloro-2-fluorophenyl)-2-methyl-2H-1,3-benzodioxol-4-yl]piperidin-1-yl}methyl)-3-{[(2S)-oxetan-2-yl]methyl}-3H-imidazo[4,5-c]pyridin-6-yl]-4H-1,2,4-triazole-3-carbonitrile] | 0.0037
11 | CC1(c2ccc(C#N)cc2F)Oc2cccc(C3CCN(Cc4nc5cc(-c6nnc(C7CC7)[nH]6)ccc5n4C[C@@H]4CCO4)CC3)c2O1 (stereo partly drawn) [Compound 277a, 4-[4-(1-{[5-(5-cyclopropyl-4H-1,2,4-triazol-3-yl)-1-{[(2S)-oxetan-2-yl]methyl}-1H-1,3-benzodiazol-2-yl]methyl}piperidin-4-yl)-2-methyl-2H-1,3-benzodioxol-2-yl]-3-fluorobenzonitrile] | 0.15
12 | CN1CCCC(C(=O)Nc2ccc3c(c2)nc(CN2CCC(c4cccc(OCc5ccc(Cl)cc5F)n4)CC2)n3C[C@@H]2CCO2)C1 (stereo partly drawn) [Compound 202a, N-{2-[(4-{6-[(4-chloro-2-fluorophenyl)methoxy]pyridin-2-yl}piperidin-1-yl)methyl]-1-{[(2S)-oxetan-2-yl]methyl}-1H-1,3-benzodiazol-5-yl}-1-methylpiperidine-3-carboxamide] | 6
13 | O=C(Nc1ccc2c(c1)nc(CN1CCC(c3cccc(OCc4ccc(Cl)cc4F)n3)CC1)n2C[C@@H]1CCO1)C1CCCOC1 (single isomer, unassigned) [Compound 154c] | 1.5
14 | Fc1cc(Cl)ccc1COc1ccc(F)c(N2CCN(Cc3nc4cc(-c5nnc(C(F)(F)F)[nH]5)ncc4n3C[C@@H]3CCO3)CC2)n1 [Compound 501a, 1-{6-[(4-chloro-2-fluorophenyl)methoxy]-3-fluoropyridin-2-yl}-4-[(3-{[(2S)-oxetan-2-yl]methyl}-6-[5-(trifluoromethyl)-4H-1,2,4-triazol-3-yl]-3H-imidazo[4,5-c]pyridin-2-yl)methyl]piperazine] | 0.038
15 | Cc1nc(-c2noc(=O)[nH]2)cc2nc(CN3CCC(c4cccc5c4O[C@@](C)(c4ccc(Cl)cc4F)O5)CC3)n(C[C@@H]3CCO3)c12 [Compound 434a, 3-[2-({4-[(2S)-2-(4-chloro-2-fluorophenyl)-2-methyl-2H-1,3-benzodioxol-4-yl]piperidin-1-yl}methyl)-4-methyl-3-{[(2S)-oxetan-2-yl]methyl}-3H-imidazo[4,5-c]pyridin-6-yl]-4,5-dihydro-1,2,4-oxadiazol-5-one] | 0.23
16 | N#Cc1ccc(COc2cccc(C3CCN(Cc4nc5cc(-c6nnc(C(F)(F)F)[nH]6)ncc5n4C[C@@H]4CCO4)CC3)n2)c(F)c1 [Compound 313a, 3-fluoro-4-{[(6-{1-[(3-{[(2S)-oxetan-2-yl]methyl}-6-[5-(trifluoromethyl)-4H-1,2,4-triazol-3-yl]-3H-imidazo[4,5-c]pyridin-2-yl)methyl]piperidin-4-yl}pyridin-2-yl)oxy]methyl}benzonitrile] | 0.012
17 | C[C@]1(c2ccc(Cl)cn2)Oc2cccc(C3CCN(Cc4nc5cc(-c6n[nH]c(C(F)(F)F)n6)cnc5n4C[C@@H]4CCO4)CC3)c2O1 (single isomer, unassigned) [Compound 333c] | 0.95
18 | N#Cc1ccc(COc2nc(C3CCN(Cc4nc5cc(-c6nnc(C(F)(F)F)[nH]6)nnc5n4C[C@@H]4CCO4)CC3)ccc2F)c(F)c1 [Compound 517a, 3-fluoro-4-{[(3-fluoro-6-{1-[(7-{[(2S)-oxetan-2-yl]methyl}-3-[5-(trifluoromethyl)-4H-1,2,4-triazol-3-yl]-7H-imidazo[4,5-c]pyridazin-6-yl)methyl]piperidin-4-yl}pyridin-2-yl)oxy]methyl}benzonitrile] | 0.043
19 | Cc1ncc(-c2ccc3c(c2)nc(CN2CCC(c4cccc5c4OC(C)(c4ccc(Cl)cc4F)O5)CC2)n3C[C@@H]2CCO2)cn1 (stereo partly drawn) [Compound 237a, 2-((4-(2-(4-chloro-2-fluorophenyl)-2-methylbenzo[d][1,3]dioxol-4-yl)piperidin-1-yl)methyl)-5-(2-methylpyrimidin-5-yl)-1-(((S)-oxetan-2-yl)methyl)-1H-benzo[d]imidazole] | 9.1
20 | N#Cc1ccc(COc2nc(C3CCN(Cc4nc5cc(-c6nnc(C(F)(F)F)[nH]6)ncc5n4C[C@@H]4CCO4)CC3)ncc2F)c(F)c1 [Compound 509a, 3-fluoro-4-{[(5-fluoro-2-{1-[(3-{[(2S)-oxetan-2-yl]methyl}-6-[5-(trifluoromethyl)-4H-1,2,4-triazol-3-yl]-3H-imidazo[4,5-c]pyridin-2-yl)methyl]piperidin-4-yl}pyrimidin-4-yl)oxy]methyl}benzonitrile] | 0.074
21 | CC1(c2ccc(Cl)cn2)Oc2cccc(C3CCN(Cc4nc5cc(-c6noc(=O)[nH]6)ncc5n4C[C@@H]4CCO4)CC3)c2O1 (stereo partly drawn) [Compound 343a, 3-[2-({4-[2-(5-chloropyridin-2-yl)-2-methyl-2H-1,3-benzodioxol-4-yl]piperidin-1-yl}methyl)-3-{[(2S)-oxetan-2-yl]methyl}-3H-imidazo[4,5-c]pyridin-6-yl]-4,5-dihydro-1,2,4-oxadiazol-5-one] | 0.079
22 | O=C(Nc1ccc2c(c1)nc(CN1CCC(c3cccc(OCc4ccc(Cl)cc4F)n3)CC1)n2C[C@@H]1CCO1)C1Cc2ccncc2C1 (stereo partly drawn) [Compound 180a, N-{2-[(4-{6-[(4-chloro-2-fluorophenyl)methoxy]pyridin-2-yl}piperidin-1-yl)methyl]-1-{[(2S)-oxetan-2-yl]methyl}-1H-1,3-benzodiazol-5-yl}-5H,6H,7H-cyclopenta[c]pyridine-6-carboxamide] | 6
